How the values were obtained:
[1] = molecular target: SHP-2 enzyme (Met1-Leu525) (Homo sapiens (Human), UniProt Q06124); experiment: SHP2 inhibition enzymatic assay; assay type: biochemical; details: 0.5 nM SHP-2 activated by 500 nM IRS1 peptide, 75 μM DiFMUP substrate; read-out: SHP2wt-IC50
Protocol: The assay was performed as described in YP Chen et al, Nature (535)2016. Assay volume of 20 μL/well was assembled in 384 well black polystyrene low-binding microplates (Greiner), using the following buffer: 60 mM HEPES pH 7.2, 75 mM NaCl, 75 mM KCl, 1 mM EDTA pH 8, 0.05% tween-20, 5 mM DTT. The SHP-2 enzyme (synthetized by Origene, Met1-Leu525, cat #TP750155) was used at a final concentration of 0.5 nM. The enzyme was activated by 500 nM IRS1 peptide (sequence: H2N-LN(pY)IDLDLV(dPEG8)LST(pY)ASINFQK-amide SEQ ID No. 1) and incubated with 75 μM DiFMUP (Sigma) as substrate.
Briefly, DMSO serially diluted testing compounds were transferred to the bottom of the assay plate. SHP2 was then added together with the IRS1 peptide. 30 min post incubation, the DiFMUP substrate was added to the reaction and incubated 30 min at room temperature. Finally 5 μL of 160 μM bpV (Potassium bisperoxo[1,10-phenanthroline]oxovanadate [V], Sigma) were added to stop and quench the reaction. The fluorescence was detected by a microplate reader (Envision, PerkinElmer) according to the DiFMUP excitation and emission wavelength. The lower the fluorescence the higher the SHP2 inhibition. […] The percentage inhibition is fitted against the compound dilutions with a four-parameter logistic regression. The inflection point (i.e. the concentration at which half-maximal inhibition is achieved) is the IC50.

[2] = system: ERK phosphorylation in KYSE-520 cells; experiment: Phospho-ERK cellular assay; assay type: cell-based; details: Homo sapiens, KYSE-520, 2 h, KYSE-520 cells, 2 h at 37° C., phospho-ERK1/2 (Thr202/Tyr204) TR-FRET; read-out: PERK IC50
Protocol: ERK phosphorylation was detected using the “Advanced phospho-ERK1/2 (Thr202/Tyr204)” TR-FRET kit (Cisbio, Cat #64AERPEG/H), following the manufacturer reagents and instructions.
Briefly, 20.000/well KYSE-520 cells (DSMZ ACC 371) were plated in 6 μL RPMI-1640 (Invitrogen) growth medium, into 384 white low-volume high base TC microplates (Greiner). After an overnight incubation, cells were treated with DMSO serial diluted compounds and incubated for 2 h at 37° C. After incubation, 2 μL/well of 4×Lysis Buffer (Cisbio 64KL1FDF), were added and incubated with cells for 30 min on gentle shaking. Finally, lysates were added with 2 μL/well of Eu cryptate (donor) and D2 (acceptor) conjugated antibodies (as provided by the Cisbio kit #64AERPEG/H) diluted 1:100 in Detection Buffer (as provided by the Cisbio kit #64AERPEG/H). Plates were then sealed and incubated at room temperature in the dark. After an overnight incubation, the TR-FRET signal was detected on a suitable reader (Envision, PerkinElmer). The lower the TR-FRET signal the higher the higher the SHP2 inhibition in cells.
The activity of each compound dilution was calculated as percentage between vehicle DMSO treated cells and no cells, 0% inhibition and 100% inhibition respectively. The percentage activity is fitted against the compound dilutions with a four-parameter logistic regression. The inflection point (i.e. the concentration at which half-maximal inhibition is achieved) is the IC50.

SHP-2 enzyme (Met1-Leu525), sequence (Q06124 1-525): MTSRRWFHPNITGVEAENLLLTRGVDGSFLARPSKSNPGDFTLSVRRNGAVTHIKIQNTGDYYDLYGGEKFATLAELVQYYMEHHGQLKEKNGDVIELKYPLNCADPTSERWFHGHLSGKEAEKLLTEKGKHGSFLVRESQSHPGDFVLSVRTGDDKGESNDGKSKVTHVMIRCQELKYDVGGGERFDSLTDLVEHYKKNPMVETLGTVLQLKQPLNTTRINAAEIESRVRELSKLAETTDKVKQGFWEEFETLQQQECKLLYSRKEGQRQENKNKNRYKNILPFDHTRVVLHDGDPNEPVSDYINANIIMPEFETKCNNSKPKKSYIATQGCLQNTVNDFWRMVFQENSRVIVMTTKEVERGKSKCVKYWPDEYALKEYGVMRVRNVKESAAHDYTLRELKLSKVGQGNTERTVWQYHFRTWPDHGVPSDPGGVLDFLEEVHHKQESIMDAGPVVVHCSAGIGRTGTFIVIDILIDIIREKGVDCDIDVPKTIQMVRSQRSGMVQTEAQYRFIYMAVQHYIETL

SMILES | IC50 [1] | IC50 [2]
NC[C@@]1(c2ccccc2F)C2CCN(c3ccc4nc(Sc5ccnc(N)c5Cl)ccc4n3)CC21 (stereo in doubt) [Example 387, 4-((6-((1R,6S,7S)-7-(aminomethyl)-7-(2-fluorophenyl)-3-azabicyclo[4.1.0]heptan-3-yl)-1,5-naphthyridin-2-yl)thio)-3-chloropyridin-2-amine] | < 500 nM | < 1000 nM
Cc1nc(N2CCC3C(C2)C3(CN)c2ccsc2)c(CO)nc1-c1cccc(Cl)c1Cl (centres unmarked) [Example 1, [3-[7-(aminomethyl)-7-(thiophen-3-yl)-3-azabicyclo[4.1.0]heptan-3-yl]-6-(2,3-dichlorophenyl)-5-methylpyrazin-2-yl]methanol] | < 500 nM | > 5000 nM
NCC1(c2cccnc2)C2CCN(c3cnc4c(-c5cccc(Cl)c5Cl)n[nH]c4n3)CC21 (centres unmarked) [Example 2, [3-[3-(2,3-dichlorophenyl)-1H-pyrazolo[3,4-b]pyrazin-6-yl]-7-(pyridin-3-yl)-3-azabicyclo[4.1.0]heptan-7-yl]methanamine] | < 500 nM | < 1000 nM
NCC1(c2ccccc2F)C2CCN(c3cnc4c(-c5cccc(Cl)c5Cl)n[nH]c4n3)CC21 (centres unmarked) [Example 3, (3-(3-(2,3-dichlorophenyl)-1H-pyrazolo[3,4-b]pyrazin-6-yl)-7-(2-fluorophenyl)-3-azabicyclo[4.1.0]heptan-7-yl)methanamine] | < 500 nM | < 1000 nM
NCC1(c2ccccc2F)C2CCN(c3cnc4c(-c5cccc6ccsc56)n[nH]c4n3)CC21 (centres unmarked) [Example 4, (3-(3-(benzo[b]thiophen-7-yl)-1H-pyrazolo[3,4-b]pyrazin-6-yl)-7-(2-fluorophenyl)-3-azabicyclo[4.1.0]heptan-7-yl)methanamine] | < 500 nM | 1000 to 5000 nM
NCC1(c2ccccc2F)C2CCN(c3cc4nc(Sc5ccnc(N)c5Cl)cnc4[nH]3)CC21 (centres unmarked) [Example 59, 4-((6-(7-(aminomethyl)-7-(2-fluorophenyl)-3-azabicyclo[4.1.0]heptan-3-yl)-5H-pyrrolo[2,3-b]pyrazin-2-yl)thio)-3-chloropyridin-2-amine] |  | < 1000 nM
Cc1cc([C@@]2(CN)[C@@H]3CCN(c4cnc5c(-c6cccc(-c7ncco7)c6Cl)n[nH]c5n4)C[C@@H]32)no1 [Example 111, ((1S,6R,7S)-3-(3-(2-chloro-3-(oxazol-2-yl)phenyl)-1H-pyrazolo[3,4-b]pyrazin-6-yl)-7-(5-methylisoxazol-3-yl)-3-azabicyclo[4.1.0]heptan-7-yl)methanamine] |  | < 1000 nM
Cc1cc(C(N)=O)ncc1-c1n[nH]c2nc(N3CC[C@@H]4[C@H](C3)[C@@]4(CN)c3ccccc3F)cnc12 [Example 307, 5-(6-((1S,6R,7R)-7-(aminomethyl)-7-(2-fluorophenyl)-3-azabicyclo[4.1.0]heptan-3-yl)-1H-pyrazolo[3,4-b]pyrazin-3-yl)-4-methylpicolinamide] |  | < 1000 nM
Cc1c(-c2n[nH]c3nc(N4CC[C@@H]5[C@H](C4)[C@@]5(CN)c4cc(F)cc(F)c4)cnc23)ccc2nn(C)cc12 [Example 308, ((1S,6R,7R)-7-(3,5-difluorophenyl)-3-(3-(2,4-dimethyl-2H-indazol-5-yl)-1H-pyrazolo[3,4-b]pyrazin-6-yl)-3-azabicyclo[4.1.0]heptan-7-yl)methanamine] |  | < 1000 nM
N#CNC(=O)c1ccc(-c2n[nH]c3nc(N4CC[C@@H]5[C@H](C4)[C@@]5(CN)c4ccccc4F)cnc23)c(Cl)c1 [Example 310, 4-(6-((1S,6R,7R)-7-(aminomethyl)-7-(2-fluorophenyl)-3-azabicyclo[4.1.0]heptan-3-yl)-1H-pyrazolo[3,4-b]pyrazin-3-yl)-3-chloro-N-cyanobenzamide] |  | > 5000 nM
NC[C@]1(c2ccccc2F)[C@@H]2CCN(c3cnc4c(-c5ccc(-c6cc(F)c(O)c(F)c6)cc5Cl)n[nH]c4n3)C[C@@H]21 [Example 313, 4′-(6-((1S,6R,7R)-7-(aminomethyl)-7-(2-fluorophenyl)-3-azabicyclo[4.1.0]heptan-3-yl)-1H-pyrazolo[3,4-b]pyrazin-3-yl)-3′-chloro-3,5-difluoro-[1,1′-biphenyl]-4-ol] |  | < 1000 nM
NC[C@]1(c2ccccc2F)[C@@H]2CCN(c3cnc4c(-c5ccc(CC(N)=O)cc5Cl)n[nH]c4n3)C[C@@H]21 [Example 328, 2-(4-(6-((1S,6R,7R)-7-(aminomethyl)-7-(2-fluorophenyl)-3-azabicyclo[4.1.0]heptan-3-yl)-1H-pyrazolo[3,4-b]pyrazin-3-yl)-3-chlorophenyl)acetamide] |  | > 5000 nM
NC[C@]1(c2ccccc2F)[C@@H]2CCN(c3nc4nc(Sc5ccnc(-n6cccn6)c5Cl)cnc4[nH]3)C[C@@H]21 [Example 342, ((1S,6R,7R)-3-(5-((3-chloro-2-(1H-pyrazol-1-yl)pyridin-4-yl)thio)-1H-imidazo[4,5-b]pyrazin-2-yl)-7-(2-fluorophenyl)-3-azabicyclo[4.1.0]heptan-7-yl)methanamine] |  | > 5000 nM
CC(C)(C)C#Cc1n[nH]c2nc(N3CC[C@@H]4[C@H](C3)[C@@]4(CN)c3ccccc3F)cnc12 [Example 366, ((1S,6R,7R)-3-(3-(3,3-dimethylbut-1-yn-1-yl)-1H-pyrazolo[3,4-b]pyrazin-6-yl)-7-(2-fluorophenyl)-3-azabicyclo[4.1.0]heptan-7-yl)methanamine] |  | < 1000 nM
NC[C@]1(c2ccccc2F)[C@@H]2CCN(c3cnc4c(-c5ccc(-c6nsc(O)n6)cc5Cl)n[nH]c4n3)C[C@@H]21 [Example 379, 3-(4-(6-((1S,6R,7R)-7-(aminomethyl)-7-(2-fluorophenyl)-3-azabicyclo[4.1.0]heptan-3-yl)-1H-pyrazolo[3,4-b]pyrazin-3-yl)-3-chlorophenyl)-1,2,4-thiadiazol-5-ol] |  | > 5000 nM
NC[C@]1(c2ccsn2)[C@@H]2CN(c3cnc4c(-c5ccc6nn(C(F)F)cc6c5Cl)n[nH]c4n3)C[C@@H]21 [Example 468, ((1R,5S,6r)-3-(3-(4-chloro-2-(difluoromethyl)-2H-indazol-5-yl)-1H-pyrazolo[3,4-b]pyrazin-6-yl)-6-(isothiazol-3-yl)-3-azabicyclo[3.1.0]hexan-6-yl)methanamine] |  | < 1000 nM
Cc1csc([C@@]2(CN)[C@@H]3CCN(c4cnc5c(-c6ccc(F)c7ncccc67)c[nH]c5n4)C[C@@H]32)n1 [Example 502, ((1S,6R,7S)-3-(7-(8-fluoroquinolin-5-yl)-5H-pyrrolo[2,3-b]pyrazin-3-yl)-7-(4-methylthiazol-2-yl)-3-azabicyclo[4.1.0]heptan-7-yl)methanamine] |  | < 1000 nM
Cc1csc([C@@]2(CN)[C@@H]3CN(c4cnc5c(-c6ccnc(-n7cccn7)c6Cl)n[nH]c5n4)C[C@@H]32)n1 [Example 516, ((1R,5S,6r)-3-(3-(3-chloro-2-(1H-pyrazol-1-yl)pyridin-4-yl)-1H-pyrazolo[3,4-b]pyrazin-6-yl)-6-(4-methylthiazol-2-yl)-3-azabicyclo[3.1.0]hexan-6-yl)methanamine] |  | < 1000 nM
Cc1csc([C@@]2(CN)[C@@H]3CN(c4cnc(Sc5ccnc(-n6cccn6)c5Cl)cn4)C[C@@H]32)n1 [Example 520, ((1R,5S,6r)-3-(5-((3-chloro-2-(1H-pyrazol-1-yl)pyridin-4-yl)thio)pyrazin-2-yl)-6-(4-methylthiazol-2-yl)-3-azabicyclo[3.1.0]hexan-6-yl)methanamine] |  | < 1000 nM
Cc1csc([C@@]2(CN)[C@@H]3CN(c4nc(C)n(-c5cccc(Cl)c5Cl)c(=O)c4Cl)C[C@@H]32)n1 [Example 526, 6-((1R,5S,6r)-6-(aminomethyl)-6-(4-methylthiazol-2-yl)-3-azabicyclo[3.1.0]hexan-3-yl)-5-chloro-3-(2,3-dichlorophenyl)-2-methylpyrimidin-4(3H)-one] |  | > 5000 nM
NC[C@]1(c2cc(F)ccc2F)[C@@H]2CCN(c3cnc4nc(-c5ccc6c(c5)CCC(=O)N6)ccc4n3)C[C@@H]21 [Example 531, 6-(2-((1S,6R,7R)-7-(aminomethyl)-7-(2,5-difluorophenyl)-3-azabicyclo[4.1.0]heptan-3-yl)pyrido[2,3-b]pyrazin-6-yl)-3,4-dihydroquinolin-2(1H)-one] | < 500 nM | 
